From the NIST ThermoML archive (doi:10.1016/j.jct.2019.03.024)
Numbers after ± are expanded uncertainties.

How the values were obtained:
[1] = refractive index (Na D-line) (dimensionless); details: 298.15 K; 86.5 kPa; Liquid; Standard Abbe refractometry
[2] = 298.15 K, 86.5 kPa, Liquid

## CCCCCCCCn1cc[n+](C)c1.[Br-] [1-methyl-3-octylimidazolium bromide]
[1]
  refractive index: 1.5217 ± 0.02
[2]; Frequency=3 MHz, Single path-length method
  speed of sound: 1561.8 ± 2.2 m/s
[2]; Vibrating tube method
  mass density: 1172.98 ± 2.3 kg/m3
